{
  "source": "patent US20070225351A1",
  "about": "“Methods and compositions for controlling body weight and appetite” (priority 2002, published 2007)",
  "test": "in vivo",
  "assay_type": "in vivo",
  "protocol": "Eighteen male and eighteen female beagle dogs were received from Ridglan Farms, Mt. Horeb, Wis. […] Each group consisted of four males and four females. All animals/sex/group were scheduled for the primary necropsy at the end of the 13-week treatment period.\nThe animals were observed twice daily for mortality and moribundity. Clinical examinations were performed daily at the time of dosing and approximately 1-2 and approximately 3 hours following dose administration. Detailed physical examinations were performed weekly. Clinical pathology evaluations (hematology, serum chemistry and urinalysis) were performed prior to the initiation of dose administration (study week-1) and prior to the scheduled necropsy (study week 13). Individual body weights were recorded weekly, beginning approximately two weeks prior to test article administration (study week-2). Mean body weights and mean body weight changes were calculated for each corresponding interval. Final body weights (fasted) were recorded prior to the scheduled necropsy. […] Gross lesions were also examined from the 2.0 and 6.0 mg/kg/day groups.",
  "data": [
    {"smiles": "Cl.Clc1ccc([C@@]23CNC[C@@H]2C3)cc1Cl", "note": "(single isomer, unassigned) [(+)-1-(3,4-dichlorophenyl)-3-azabicyclo[3.1.0]hexane hydrochloride]", "values": [
      {"measurement": "weekly food consumption, MEAN", "setting": "female dogs, 20 MG/KG/DAY, WEEK 11 TO 12", "result": "305.", "unit": "C/ANIMAL/DAY"},
      {"measurement": "weekly food consumption, MEAN", "setting": "female dogs, 20 MG/KG/DAY, WEEK 12 TO 13", "result": "249.", "unit": "C/ANIMAL/DAY"},
      {"measurement": "mean total cumulative body weight change, lower than control", "setting": "male dogs, 20 mg/kg/day, end of 13-week study (body weight loss)", "result": 120, "unit": "%"},
      {"measurement": "mean food consumption, lower than control", "setting": "male dogs, 20 mg/kg/day, first week of dose administration", "result": 33, "unit": "%"},
      {"measurement": "food consumption, less than control values", "setting": "male dogs, 20 mg/kg/day, generally, throughout the study", "result": "at least 10%"},
      {"measurement": "mean body weight, lower than control", "setting": "male dogs, 20 mg/kg/day, study week 13", "result": 13, "unit": "%"},
      {"measurement": "mean food consumption, lower than control", "setting": "male dogs, 20 mg/kg/day, study weeks 6 to 13 except week 8 to 9, not statistically significant", "result": "at least 10%"},
      {"measurement": "weekly food consumption, MEAN", "setting": "male dogs, 2.0 MG/KG/DAY group, WEEK −1 TO 0 (before dosing)", "result": "339.", "unit": "C/ANIMAL/DAY"},
      {"measurement": "weekly food consumption, MEAN", "setting": "male dogs, 2.0 MG/KG/DAY, WEEK 0 TO 1", "result": "320.", "unit": "C/ANIMAL/DAY"},
      {"measurement": "weekly food consumption, MEAN", "setting": "male dogs, 2.0 MG/KG/DAY, WEEK 1 TO 2", "result": "354.", "unit": "C/ANIMAL/DAY"},
      {"measurement": "weekly food consumption, MEAN", "setting": "male dogs, 2.0 MG/KG/DAY, WEEK 2 TO 3", "result": "373.", "unit": "C/ANIMAL/DAY"},
      {"measurement": "weekly food consumption, MEAN", "setting": "male dogs, 2.0 MG/KG/DAY, WEEK 3 TO 4", "result": "366.", "unit": "C/ANIMAL/DAY"},
      {"measurement": "weekly food consumption, MEAN", "setting": "male dogs, 2.0 MG/KG/DAY, WEEK 4 TO 5", "result": "369.", "unit": "C/ANIMAL/DAY"},
      {"measurement": "weekly food consumption, MEAN", "setting": "male dogs, 2.0 MG/KG/DAY, WEEK 5 TO 6", "result": "360.", "unit": "C/ANIMAL/DAY"},
      {"measurement": "weekly food consumption, MEAN", "setting": "male dogs, 2.0 MG/KG/DAY, WEEK 6 TO 7", "result": "393.", "unit": "C/ANIMAL/DAY"},
      {"measurement": "weekly food consumption, MEAN", "setting": "male dogs, 2.0 MG/KG/DAY, WEEK 7 TO 8", "result": "360.", "unit": "C/ANIMAL/DAY"},
      {"measurement": "weekly food consumption, MEAN", "setting": "male dogs, 2.0 MG/KG/DAY, WEEK 8 TO 9", "result": "388.", "unit": "C/ANIMAL/DAY"},
      {"measurement": "weekly food consumption, MEAN", "setting": "male dogs, 2.0 MG/KG/DAY, WEEK 9 TO 10", "result": "375.", "unit": "C/ANIMAL/DAY"},
      {"measurement": "weekly food consumption, MEAN", "setting": "male dogs, 2.0 MG/KG/DAY, WEEK 10 TO 11", "result": "389.", "unit": "C/ANIMAL/DAY"},
      {"measurement": "weekly food consumption, MEAN", "setting": "male dogs, 2.0 MG/KG/DAY, WEEK 12 TO 13", "result": "355.", "unit": "C/ANIMAL/DAY"},
      {"measurement": "weekly food consumption, MEAN", "setting": "male dogs, 6.0 MG/KG/DAY group, WEEK −1 TO 0 (before dosing)", "result": "331.", "unit": "C/ANIMAL/DAY"},
      {"measurement": "weekly food consumption, MEAN", "setting": "male dogs, 6.0 MG/KG/DAY, WEEK 0 TO 1", "result": "351.", "unit": "C/ANIMAL/DAY"},
      {"measurement": "weekly food consumption, MEAN", "setting": "male dogs, 6.0 MG/KG/DAY, WEEK 1 TO 2", "result": "370.", "unit": "C/ANIMAL/DAY"},
      {"measurement": "weekly food consumption, MEAN", "setting": "male dogs, 6.0 MG/KG/DAY, WEEK 3 TO 4", "result": "380.", "unit": "C/ANIMAL/DAY"},
      {"measurement": "weekly food consumption, MEAN", "setting": "male dogs, 6.0 MG/KG/DAY, WEEK 4 TO 5", "result": "350.", "unit": "C/ANIMAL/DAY"},
      {"measurement": "weekly food consumption, MEAN", "setting": "male dogs, 6.0 MG/KG/DAY, WEEK 5 TO 6", "result": "374.", "unit": "C/ANIMAL/DAY"},
      {"measurement": "weekly food consumption, MEAN", "setting": "male dogs, 6.0 MG/KG/DAY, WEEK 6 TO 7", "result": "381.", "unit": "C/ANIMAL/DAY"},
      {"measurement": "weekly food consumption, MEAN", "setting": "male dogs, 6.0 MG/KG/DAY, WEEK 7 TO 8", "result": "356.", "unit": "C/ANIMAL/DAY"},
      {"measurement": "weekly food consumption, MEAN", "setting": "male dogs, 6.0 MG/KG/DAY, WEEK 8 TO 9", "result": "368.", "unit": "C/ANIMAL/DAY"},
      {"measurement": "weekly food consumption, MEAN", "setting": "male dogs, 6.0 MG/KG/DAY, WEEK 9 TO 10", "result": "360.", "unit": "C/ANIMAL/DAY"},
      {"measurement": "weekly food consumption, MEAN", "setting": "male dogs, 6.0 MG/KG/DAY, WEEK 10 TO 11", "result": "367.", "unit": "C/ANIMAL/DAY"},
      {"measurement": "weekly food consumption, MEAN", "setting": "male dogs, 6.0 MG/KG/DAY, WEEK 11 TO 12", "result": "357.", "unit": "C/ANIMAL/DAY"},
      {"measurement": "weekly food consumption, MEAN", "setting": "male dogs, 6.0 MG/KG/DAY, WEEK 12 TO 13", "result": "331.", "unit": "C/ANIMAL/DAY"},
      {"measurement": "weekly food consumption, MEAN", "setting": "male dogs, 20 MG/KG/DAY group, WEEK −1 TO 0 (before dosing)", "result": "337.", "unit": "C/ANIMAL/DAY"},
      {"measurement": "weekly food consumption, MEAN", "setting": "male dogs, 20 MG/KG/DAY, WEEK 0 TO 1", "result": "228.* C/ANIMAL/DAY"},
      {"measurement": "weekly food consumption, MEAN", "setting": "male dogs, 20 MG/KG/DAY, WEEK 1 TO 2", "result": "319.", "unit": "C/ANIMAL/DAY"},
      {"measurement": "weekly food consumption, MEAN", "setting": "male dogs, 20 MG/KG/DAY, WEEK 2 TO 3", "result": "326.", "unit": "C/ANIMAL/DAY"},
      {"measurement": "weekly food consumption, MEAN", "setting": "male dogs, 20 MG/KG/DAY, WEEK 3 TO 4", "result": "357.", "unit": "C/ANIMAL/DAY"},
      {"measurement": "weekly food consumption, MEAN", "setting": "male dogs, 20 MG/KG/DAY, WEEK 4 TO 5", "result": "356.", "unit": "C/ANIMAL/DAY"},
      {"measurement": "weekly food consumption, MEAN", "setting": "male dogs, 20 MG/KG/DAY, WEEK 5 TO 6", "result": "331.", "unit": "C/ANIMAL/DAY"},
      {"measurement": "weekly food consumption, MEAN", "setting": "male dogs, 20 MG/KG/DAY, WEEK 6 TO 7", "result": "328.", "unit": "C/ANIMAL/DAY"},
      {"measurement": "weekly food consumption, MEAN", "setting": "male dogs, 20 MG/KG/DAY, WEEK 7 TO 8", "result": "325.", "unit": "C/ANIMAL/DAY"},
      {"measurement": "weekly food consumption, MEAN", "setting": "male dogs, 20 MG/KG/DAY, WEEK 8 TO 9", "result": "375.", "unit": "C/ANIMAL/DAY"},
      {"measurement": "weekly food consumption, MEAN", "setting": "male dogs, 20 MG/KG/DAY, WEEK 9 TO 10", "result": "322.", "unit": "C/ANIMAL/DAY"},
      {"measurement": "weekly food consumption, MEAN", "setting": "male dogs, 20 MG/KG/DAY, WEEK 10 TO 11", "result": "350.", "unit": "C/ANIMAL/DAY"},
      {"measurement": "weekly food consumption, MEAN", "setting": "male dogs, 20 MG/KG/DAY, WEEK 11 TO 12", "result": "305.", "unit": "C/ANIMAL/DAY"},
      {"measurement": "weekly food consumption, MEAN", "setting": "male dogs, 20 MG/KG/DAY, WEEK 12 TO 13", "result": "249.", "unit": "C/ANIMAL/DAY"}
    ]}
  ]
}
